Data reported in patent US7635692B2, “Composition for the prevention of osteoporosis comprising a combination of isoflavones and polyunsaturated fatty acids” (DSM IP Assets B.V., priority 2001, dated 2009).

Legend:
[1] = test system: ovariectomized rat osteoporosis (OVX) model; experiment: Serum osteocalcin (bone formation marker) in OVX rats; assay type: in vivo
Experimental: Osteocalcin, a biochemical marker for bone formation, is a bone-specific protein secreted primarily in osteoblasts, i.e. the bone forming cells. Serum osteocalcin was measured as marker for bone formation.
(§1) In the experimental set up data were elaborated using the ovariectomized rat osteoporosis (OVX) model. This model mimics the estrogen deficient status as found in postmenopausal women or poststerilized female pets leading to osteoporosis. The SHAM group with intact ovaries served as control. Each test group consisted of 10-12 animals. The feed used was free of isoflavones, such as, for example, genistein. The test compounds in various combinations as given in Table 1 have been administered by feed admix. […] The administration of vitamin K1, in an amount of 20 μg/kg feed corresponds to a daily dosage of about 1 μg/kg BW, the estimated daily requirement of vitamin K1. The amount of vitamin D3 was 500 IU/kg feed which corresponds to a daily dosage of 25 IU/kg BW, the estimated daily requirement. For fortification, PUFA (5% of ROPUPA “30” n-3 Food Oil) was added to the feed corresponding to a PUPA fortification of % in feed as given in Table 1. Bone mineral density, osteocalcin, and deoxypyridinolin have been measured 84 days post intervention.
Serum Osteocalcin (bone formation marker) measurement in OVX rats: […]

[2] = test system: ovariectomized rat osteoporosis (OVX) model; experiment: Bone mineral density (BMD) of femur by DXA in the OVX rat model; assay type: in vivo; details: OVX rats
Text: In the following experimental section dual-energy X-ray absorptiometry (DXA) was used to measure bone mineral density.
In the experimental set up data were elaborated using the ovariectomized rat osteoporosis (OVX) model. This model mimics the estrogen deficient status as found in postmenopausal women or poststerilized female pets leading to osteoporosis. The SHAM group with intact ovaries served as control. Each test group consisted of 10-12 animals. The feed used was free of isoflavones, such as, for example, genistein. […] The administration of vitamin K1, in an amount of 20 μg/kg feed corresponds to a daily dosage of about 1 μg/kg BW, the estimated daily requirement of vitamin K1. The amount of vitamin D3 was 500 IU/kg feed which corresponds to a daily dosage of 25 IU/kg BW, the estimated daily requirement. For fortification, PUFA (5% of ROPUPA “30” n-3 Food Oil) was added to the feed corresponding to a PUPA fortification of % in feed as given in Table 1. Bone mineral density, osteocalcin, and deoxypyridinolin have been measured 84 days post intervention.
Bone mineral density (BMD) measurement in the femur of OVX rats: […]

[3] = test system: ovariectomized rat osteoporosis (OVX) model; experiment: Deoxypyridinoline excretion (bone resorption marker) in OVX rats; assay type: in vivo
Experimental: Deoxypyridinoline (DPD) crosslinks excretion provides a highly specific marker for bone resorption. DPD crosslinks excretion was measured as a marker for bone resorption. The values have to be corrected for urinary concentration by creatinine measurement as it is known in the art.
as §1
Deoxypyridinoline (bone resorption marker) measurement in OVX rats: […]

[4] = Plasma genistein level in rats after feed admix; assay type: in vivo, rat; details: genistein 15 mg/kg BW per day, comparable to Japanese people on a traditional diet
Text: as §1

[5] = 84 days post intervention, compared with the other groups

plasma genistein level [4]: ~280 nM
SMILES: O=c1c(-c2ccc(O)cc2)coc2cc(O)cc(O)c12 [Genistein, 4′,5,7-trihydroxy-isoflavone]
Effect on serum osteocalcin levels (in words) [1, 5]: reduced osteocalcin levels to control values
Serum osteocalcin, Mean serum conc. ([1]; feed admix, day 84 postintervention): 14.6 ng/mL
Effect on BMD (in words) [2, 5]: improved BMD to control values
Bone mineral density of femur, Mean ([2]; feed admix, day 84 postintervention, DXA): 0.143 g/cm^2
Effect on DPD excretion (in words) [3, 5]: restores DPD excretion to values of the control group
Deoxypyridinoline excretion, Mean ([3]; feed admix, day 84 postintervention, corrected by creatinine): 220.5 nmol DPD/mmol Creatinine
